Results reported in ChEMBL document CHEMBL3632573, “Triazine as a promising scaffold for its versatile biological behavior” (Eur J Med Chem, 2015).

Biological target: Histone deacetylase
Assay: Inhibition of HDAC (unknown origin)
Type: protein assay, Homo sapiens

IC50: < 200 nM
Structure (SMILES): Nc1nc(NCc2ccc(C(=O)Nc3ccccc3N)cc2)nc(NC2CCCC2)n1
